A short description of data set [1]: Parallel artificial membrane permeability assay (PAMPA). Type of data set: in vitro ADME. An excerpt:
Compound mlm hlm mLogD PAMPA HepG2
name (%rem) (%rem) (nm/s) (IC50 µM)
Supplementary Table 2. Compound Properties. MLM, HLM, mLogD and PAMPA . mlm
(PAMPA measures passive passage across an artificial lipid membrane.)

A short description of data set [2]: Cytotoxicity assay (ATP depletion), A549. The following applies: human, A549 lung carcinoma cells, 0.001–10 µM, n = 6. Format: cell-based. How it is done: (§1) A549 (lung carcinoma; ATCC, Ref. ATCC® CCL-185™), plated at 7.5×10^3 cells/well; HT-29 (colorectal adenocarcinoma; ATCC, Ref. ATCC® HTB-38™), plated at 7.5×10^3 cells/well; and MCF7 (breast adenocarcinoma; ATCC, Ref. ATCC® HTB-22™), plated at 9× 10^3 cells/well, were placed into clear bottom, opaque 96 well plates in cell line-specific medium and allowed to attach overnight. […] FCS, 1× GlutaMAX™ Supplement (Life Technologies, 35050061) and 50 units/ml penicillin and 50 µg/ml streptomycin for 48 h. Six independent assays were performed for each line and were carried out by CXR Biosciences Ltd. End point for cytotoxicity assessment was carried out using an ATP depletion kit (CellTiter-Glo Luminescent Cell Viability Assay for ATP quantitation (Promega, Cat # G7572)). Results expressed relative to the 0.1% DMSO control. Unpaired Student’s t-tests were performed using GraphPad Prism software (7.0).

Data set [3] is described as follows: physchem. The following applies: pH 7.4. How it is done: Compound mlm hlm mLogD PAMPA HepG2 name (%rem) (%rem) (nm/s) (IC50 µM)
Supplementary Table 2. Compound Properties. MLM, HLM, mLogD and PAMPA . mlm (%rem): % of compound remaining after 30 minutes’ incubation with mouse liver microsomes; hlm (%rem): % of compound remaining after 40 minutes’ incubation with human liver microsomes; mLogD: measured LogD at pH 7.4; PAMPA: parallel artificial membrane permeability assay; HepG2: Cytotoxicity assay using HepG2 cells; n.t.: not tested.

The nature of data set [4]: Cytotoxicity assay (ATP depletion), HT-29. Type of data set: cell-based. The following applies: human, HT-29 colorectal adenocarcinoma cells, 0.001–10 µM, n = 6. How it is done: as §1
Data set [5] deals with P. falciparum wild-type (3D7) stage V gametocytes. Briefly: Gametogenesis (rounding up) assay, wild-type 3D7 stage V gametocytes. Type of data set: cell-based, Plasmodium falciparum. As to conditions: 30 µM xanthurenic acid; 2 µM ML1, 1 µM ML10. How it is done: Plasmodium falciparum clone 3D7A (obtained from Dr Lisa Ranford-Cartwright, University of Edinburgh) gametocytes were initiated and cultured using an adapted version of the traditional Trager and Jenson method modified by Fivelman and colleagues. Stage V gametocytes were purified on a 60% Percoll gradient. Purified parasite samples were diluted in warm complete media (RPMI-1640 (Sigma), 0.5% Albumax (Invitrogen), 0.03% L-glutamine (Sigma), 0.2% Glucose (Sigma), 1× hypoxanthine (Sigma)), to a volume that would allow a final volume of […] per sample and a haematocrit of <10%. […] Control tubes containing DMSO only were kept at 37 °C. All other samples were incubated at room temperature for 30 min immediately after addition of test compounds. Samples were then washed once in warm RPMI followed by removal of the supernatant to leave a final haematocrit of roughly 50%. Samples were smeared on glass slides and fixed in 100% methanol (VWR) then stained for 15 min in 10% Giemsa R66 (VWR) and observed by light microscopy. The number of gametocytes at stage V and rounded up per 900 erythrocytes were counted three consecutive times to produce an average count. Numbers of parasites rounded up were compared to the no drug control.

Data set [6] has as its system P. falciparum Pf3D7 0087/N9. Briefly: GSK P. falciparum humanized mouse model (GSKPfalcHuMouse) efficacy. The following applies: 4 days.
Text: The mice were infected with 2 × 10^7 P. falciparum Pf3D7^0087/N9-infected erythrocytes (Day 0) at ~ 40% chimerism in peripheral blood. […] AUCED90 is the average daily exposure of the compound in whole blood that reduces parasitemia at day 7 of the in vivo assay by 90% with respect to parasitemia in vehicle-treated mice.

Data on 1 compound can be found in PMC5585294, “A potent series targeting the malarial cGMP-dependent protein kinase clears infection and blocks transmission” (Nature Communications, 2017).

By Papp is commonly meant a coefficient for how fast a substance crosses the barrier. A word on the EC50: it is the concentration giving half of the maximal effect. Usually logD stands for the decadic logarithm of the distribution of all forms, ionised or not, between an organic phase and buffer at a given pH. A higher logD goes with a more lipophilic compound. On to `Cc1cn2c(-c3ccnc(NCC4CC4)n3)c(-c3ccc(F)c(NS(C)(=O)=O)c3)nc2cc1CN(C)C` [ML10], for which, in data set [1], the Papp was determined as 8.16 ×10⁻⁶ cm/s. Moreover, the 50% effective concentration (EC50) at 48 h in data set [2] and in data set [4] was more than 10 µM in each case. The logD in data set [3] was found to be 2.8. Besides, the “rounding up of wild-type gametocytes” value in data set [5] is recorded as “blocked rounding up”. For the same compound, in data set [6] (100 mg/kg twice daily oral), the “parasitaemia at the end of the treatment” value was “not detectable”. Moreover, the effect on parasitaemia result in data set [6] (50 or 100 mg/kg twice daily oral) is listed as “dramatically reduced parasitaemia”.
